Paper PMC10762035, “Molecular basis of human trace amine-associated receptor 1 activation” (Nature Communications, 2024)
Positions count from the first letter of the chain named. Several values for one entry are separate records, joined by “and”; a condition that tells them apart may be missing. Equal entries are not always repeated. Where two headings read alike, the source gives them in different places.

Assays:
hTA1 R83H = target: T1, hTA1 R83H (Homo sapiens, UniProt Q96RJ0, R83H); assay: GloSensor cAMP accumulation assay, R83H mutant; type: cell-based; details: for ΔEmax values (each mutant value - WT average): R83H mutant minus WT average;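 on all read-outs here: cells transiently co-expressing hTA1 and a cAMP GloSensor, luminescence read 30 min after agonist addition at room temperature, concentration–response fitted by non-linear regression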
T1 construct: expressed in transfected cells; host or cells: HEK293T
T1 sequence (Q96RJ0 1-339 R83H): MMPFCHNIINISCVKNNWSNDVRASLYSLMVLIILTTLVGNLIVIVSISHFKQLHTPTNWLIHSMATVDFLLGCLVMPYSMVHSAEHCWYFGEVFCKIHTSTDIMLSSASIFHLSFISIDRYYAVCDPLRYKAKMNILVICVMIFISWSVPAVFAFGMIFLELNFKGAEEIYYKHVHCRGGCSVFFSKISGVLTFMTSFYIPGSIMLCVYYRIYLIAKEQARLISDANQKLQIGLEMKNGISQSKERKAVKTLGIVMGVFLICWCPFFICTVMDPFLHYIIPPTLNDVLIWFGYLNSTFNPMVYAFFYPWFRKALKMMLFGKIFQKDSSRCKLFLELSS

hTA1 T194A = target: T2, hTA1 T194A (Homo sapiens, UniProt Q96RJ0, T194A); assay: GloSensor cAMP accumulation assay, T194A mutant; details: for Emax values, Mean: β-PEA = 100; for cAMP accumulation response, individual replicate values of the concentration-response curve: hTA1 T194A, log[Agonist], Supplementary Figure 5 source data; for Emax: read-out: Span ± SEM (Emax normalized to β-PEA), T194A
T2 sequence (Q96RJ0 1-339 T194A): T1 sequence (Q96RJ0 1-339 R83H) with H83R, T194A

hTA1 C5S = target: T3, hTA1 C5S (Homo sapiens, UniProt Q96RJ0, C5S); assay: GloSensor cAMP accumulation assay, C5S mutant; type: cell-based; details: for C5S - Normalized Luminescence Counts (N=2): log[Compound], single wells
T3 construct: expressed in transfected cells; host or cells: HEK293T
T3 sequence (Q96RJ0 1-339 C5S): T1 sequence (Q96RJ0 1-339 R83H) with C5S, H83R

[1] = T149A (so in the source), single experiments (3 replicates each)
[2] = C5S, n=2, read-out: Span ± SEM (Emax normalized to β-PEA)
[3] = hTA1 C5S, β-PEA = 100, mean of 3 replicates, one line per independent experiment
[4] = hTA1 C5S, β-PEA = 100, mean of 3 replicates, one line per independent experiment, read-out: Emax values, Mean

Row | Compound | ΔEmax values (each mutant value - WT average) (hTA1 R83H) | Emax values, Mean (hTA1 T194A; [1]) | cAMP accumulation response, individual replicate values of the concentration-response curve (hTA1 T194A; M = -7.522) | cAMP accumulation response, individual replicate values of the concentration-response curve (hTA1 T194A; M = -8) | cAMP accumulation response, individual replicate values of the concentration-response curve (hTA1 T194A; M = -8.522) | cAMP accumulation response, individual replicate values of the concentration-response curve (hTA1 T194A; M = -9) | cAMP accumulation response, individual replicate values of the concentration-response curve (hTA1 T194A; M = -9.522) | cAMP accumulation response, individual replicate values of the concentration-response curve (hTA1 T194A; M = -10) | cAMP accumulation response, individual replicate values of the concentration-response curve (hTA1 T194A; M = -10.522) | cAMP accumulation response, individual replicate values of the concentration-response curve (hTA1 T194A; M = -11) | cAMP accumulation response, individual replicate values of the concentration-response curve (hTA1 T194A; M = -11.522) | cAMP accumulation response, individual replicate values of the concentration-response curve (hTA1 T194A; M = -12) | cAMP accumulation response, individual replicate values of the concentration-response curve (hTA1 T194A; M = -12.522) | Emax (hTA1 T194A) [%] | Emax (hTA1 C5S; [2]) [%] | ΔpEC50 values (each mutant value - WT average), Mean (hTA1 C5S; hTA1 C5S minus WT average) | Emax values, Mean (hTA1 C5S; [3]) | Emax (hTA1 C5S; [4]) [%] | C5S - Normalized Luminescence Counts (N=2) (hTA1 C5S; M = -5) | C5S - Normalized Luminescence Counts (N=2) (hTA1 C5S; M = -5.522) | other results
1 | NCCc1ccc(O)cc1 [TYR, tyramine] | -13.6885 | 107.638 and 114.006 and 104.682 | 49.8086 and 42.1239 and 66.6609 and 74.3619 and 75.9423 and 70.8058 and 84.4051 and 77.1239 and 72.2846 | 33.9 and 32.0125 and 38.7535 and 48.6794 and 43.1478 and 39.7894 and 64.0267 and 60.8745 and 66.5574 | 15.6995 and 22.1708 and 14.0817 and 16.28 and 19.441 and 18.4532 and 29.6632 and 30.1959 and 31.2615 | 1.409 and 7.206 and 6.936 and 8.575 and 6.7973 and 9.5631 and 13.5914 and 13.9909 and 14.0797 | 1.813 and 2.083 and -1.153 and 1.068 and 2.253 and 1.463 and 4.046 and 5.511 and 3.469 | -1.827 and -1.288 and -1.4224 and 2.056 (2×) and 1.661 and 1.693 and 1.604 and 1.782 | -1.827 and -0.7483 and -1.153 and 0.2779 and -0.3148 and -0.1172 and 1.027 and 0.8937 (2×) | -0.4787 and -1.692 and -1.153 and 0.2779 and -1.105 and -1.303 and -0.971 and 0.4497 and 0.1834 | -1.557 and 0.8695 and -1.4224 and -1.105 (2×) and -0.7099 and 0.09457 and 0.05017 and 0.4053 | -0.7483 (2×) and -1.288 and -0.9074 (2×) and -0.3148 and -0.4826 and -0.1718 and -0.2162 | -0.07421 and 1.139 and 0.4651 and -1.105 (2×) and -0.5123 and -0.08302 and -0.2606 and 0.005772 | 109 ± 4.66 | 97.4 ± 4.98 | 0.08447 and -0.09146 | 92.4348 | 102 | 102.862 and 111.578 and 98.7984 and 85.7838 and 116.923 and 74.2532 | 86.6512 and 89.3832 and 85.861 and 68.3844 and 81.1578 and 69.9034 | EC50 (hTA1 R83H; R83H mutant, each line an independent experiment, 3 replicates, read-out: pEC50 values (Mean) (converted)): 5330 nM; Emax (hTA1 R83H; R83H mutant, β-PEA = 100, each line an independent experiment, 3 replicates, read-out: Emax values (Mean)): 85.3%; EC50 (hTA1 R83H; R83H, n=2, read-out: EC50): 31400 nM; increase in potency vs wild type (hTA1 T194A; T194A): over 10 fold; EC50 (hTA1 T194A; pEC50 values, Mean, T149A (so in the source), single experiments (3 replicates each)): 8.01 nM and 26.8 nM and 14.3 nM; EC50 (hTA1 T194A; pEC50 ± SEM, T194A): 14.5 nM; EC50 (hTA1 C5S; C5S, n=2, read-out: EC50): 418 nM; EC50 (hTA1 C5S; hTA1 C5S, mean of 3 replicates, one line per independent experiment, read-out: pEC50 values, Mean (converted)): 342 nM and 512 nM; C5S - Normalized Luminescence Counts (N=2) (hTA1 C5S; M = -6): 78.4779 and 69.4918 and 73.443 and 62.6536 and 54.2301 and 61.4799; C5S - Normalized Luminescence Counts (N=2) (hTA1 C5S; M = -6.522): 44.8815 and 51.1131 and 50.1196 and 36.2784 and 34.207 and 33.0332; C5S - Normalized Luminescence Counts (N=2) (hTA1 C5S; M = -7): 29.0315 and 24.8319 and 26.4576 and 17.7742 and 18.5337 and 19.2242; C5S - Normalized Luminescence Counts (N=2) (hTA1 C5S; M = -7.522): 7.6273 and 8.959 and 8.553 and 6.382 and 5.3461 and 5.829
2 | CCc1[nH]nc(C(=O)Nc2ccc([C@H]3CNCCO3)cc2)c1C [ralmitaront] | -30.9711 | 41.3499 and 73.0935 and 32.2156 | 13.1191 and 7.983 and 9.958 and 19.2742 and 14.6569 and 26.511 | 2.846 and 8.97 and 3.241 and 12.5702 and 15.1897 and 10.4391 | 0.8706 and -0.5123 and 0.673 and 2.359 and 3.025 and 2.8472 | -1.105 and -0.3148 and -1.895 and 1.693 and 2.048 and 2.27 | -1.895 and -1.698 and -1.5 and -0.7934 and 0.4941 and -0.3494 | -0.9074 and -1.105 (2×) and -0.2606 and -0.1274 and 0.9825 | -2.29 and -1.105 (2×) and -0.971 and -0.5714 and -0.1274 | -1.105 (2×) and -0.5123 and -0.1274 and -0.527 and -0.3938 | -1.5 and -0.9074 and -1.895 and -0.4826 and 0.2722 and -0.3494 | -1.105 (2×) and -0.5123 and -0.8378 and -0.9266 and 0.05017 | -0.5123 and -1.105 (2×) and -0.527 and 0.05017 and -0.6158 | 48.9 ± 20.4 | 53 ± 3.33 | -0.2888 and -0.07449 | 49.6851 | 56.4 | 56.5093 and 57.6833 and 45.4685 and 47.3256 and 58.0276 and 41.5948 | 55.6739 and 48.0198 and 44.2267 and 42.3543 and 55.8182 and 41.3187 | Emax values, Mean (hTA1 R83H; R83H mutant, β-PEA = 100, each line an independent experiment, 3 replicates): 9.143 and -4.118; Emax (hTA1 R83H; R83H, n=2, read-out: Span ± SEM (Emax normalized to β-PEA)): 2.51 ± 6.63%; ΔEmax values (each mutant value - WT average), Mean (hTA1 C5S; hTA1 C5S minus WT average): 16.2371 and 9.571; C5S - Normalized Luminescence Counts (N=2) (hTA1 C5S; M = -6): 54.1385 and 48.494 and 48.3811 and 37.8664 and 46.5661 and 38.2116; C5S - Normalized Luminescence Counts (N=2) (hTA1 C5S; M = -6.522): 36.3243 and 27.5639 and 26.277 and 37.3831 and 32.0666 and 36.4855; C5S - Normalized Luminescence Counts (N=2) (hTA1 C5S; M = -7): 17.0199 and 14.6491 and 16.7715 and 16.6005 and 20.1908 and 19.0861
